According to patent EP4755881A1 (Wuhan Createrna Science and Technology Co., Ltd., priority 2023, dated 2025):
Like-named read-outs stand apart in the source and are kept apart here. One block for each compound: values may come before it.

How the values were obtained:
[1] = molecular target: hLPAR1 (human lysophosphatidic acid receptor 1, Accession No.: NM_001401.4) (Homo sapiens, UniProt Q92633); assay: cell-based; settings: FLIPR method, CHO-K1 cells overexpressing hLPAR1
Outline: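 Antagonist mode in CHO-K1 cells stably expressing hLPAR1, Fluo-4 loaded; compound preincubated 30 min at room temperature before 1 µM oleoyl-LPA (final) challenge.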

[2] = Pharmacokinetic study in rats (oral gavage and tail vein injection, plasma LC-MS/MS); assay type: in vivo; settings: rat; for Cmax: read-out: Cmax
Experimental: Male SPF-grade SD rats (Beijing Vital River Laboratory Animal Technology Co., Ltd.) with a body weight range of 200 to 250 g were used. After acclimatization, the rats were administered a clear solution of the compound of the present disclosure via oral gavage (Po, fasted overnight before administration with free access to water, food returned 4 hours after administration) and tail vein injection (Iv, free access to food and water throughout the administration). Blood samples were collected from the orbital venous plexus/jugular vein of rats at specified time points after administration (blood collection time points for the PO group: 0.167, 0.5, 1, 2, 4, 6, 8, and 24 h; for the IV group: 0.033, 0.167, 1, 2, 4, 6, 8, and 24 h). The concentration of compounds in plasma was detected by LC-MS/MS (AB SCIEX Qtrap4500). Data were analyzed using WinNonlin (version 5.2.1 Pharsight, Mountain View, CA) with a non-compartmental model to obtain PK parameters (including Cmax, C0, Tmax, AUClast, AUCinf, T1/2, etc.).
Table 3: Results of in vivo pharmacokinetic studies of compounds of the present disclosure in rats
The vehicle for the Po group compound was 5% DMSO + 5% ethanol + 60% PEG400 + 30% normal saline; the vehicle for the Iv group compound was 10% ethanol + 20% pure water + 70% PEG400 solution.

[3] = molecular target: T1, LPAR1 receptor (Homo sapiens, UniProt Q92633); assay: LPAR1 in vitro biological activity evaluation 2: HTRF cAMP kit (LANCE Ultra cAMP Kit) assay in CHO stable transfected cell line expressing the LPAR1 receptor; assay type: cell-based; settings: Table 2, read-out: LPAR1 inhibitory activity IC50
T1 construct: expressed in transfected cells
T1 sequence (Q92633 whole entry): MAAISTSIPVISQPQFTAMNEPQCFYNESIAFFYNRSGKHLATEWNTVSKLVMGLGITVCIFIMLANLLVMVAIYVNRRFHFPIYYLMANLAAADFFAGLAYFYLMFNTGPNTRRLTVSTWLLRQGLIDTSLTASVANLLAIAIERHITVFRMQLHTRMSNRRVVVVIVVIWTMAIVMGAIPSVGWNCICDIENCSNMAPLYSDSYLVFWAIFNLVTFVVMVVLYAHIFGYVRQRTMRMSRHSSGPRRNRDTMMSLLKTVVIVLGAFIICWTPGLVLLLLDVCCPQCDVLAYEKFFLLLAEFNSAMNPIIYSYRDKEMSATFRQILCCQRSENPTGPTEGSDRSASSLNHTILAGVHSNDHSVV
Experimental: The inhibitory effects of the compounds of the present disclosure on the LPAR1 receptor were determined using a Chinese hamster ovary (CHO) stable transfected cell line expressing the LPAR1 receptor, through the HTRF cAMP kit (LANCE® Ultra cAMP Kit).
The CHO cell line expressing the LPAR1 receptor was cultured in F-12 medium (Gibco, 117650054) containing 10% fetal bovine serum (FBS, Avantor, 76294-180) and 0.2 mg/mL hygromycin B (Solarbio, H8080-1g) at 37°C with 5% CO2. Cell passage, recovery, and cryopreservation were performed according to conventional methods. The stable transfected cell line was cultured to 80% confluence, digested with trypsin to collect cells, counted, and then seeded at 5 µL/well in a 384-well plate (500 cells/5 µL). The 1× Stimulation Buffer was prepared according to the instructions of the kit (LANCE® Ultra cAMP Kit). 1 µL of the test compound solution (diluted to 10× with 1× Stimulation Buffer) was added to the corresponding experimental wells, followed by centrifugation and incubation at 37°C for 10 minutes. […] 5 µL/well of Eu-cAMP (diluted with Detection buffer) was added to the corresponding experimental wells. 5 µL/well of ULight™-anti-cAMP antibody (diluted with Detection buffer) was added to the corresponding experimental wells, followed by centrifugation and incubation at room temperature for 1 hour. After the incubation was completed, the readings at 665 nm and 620 nm under 330 nm excitation were detected using the HTS high-throughput drug screening multifunctional microplate reader (BMG, PHERAstar FSX). The IC50 values were calculated by fitting nonlinear regression (dose response - variable slope) using GraphPad Prism software.

[4] = LPAR1 inhibitory activity IC50, Table 1
[5] = Table 1, read-out: LPAR1 inhibitory activity IC50

Sequence of hLPAR1 (human lysophosphatidic acid receptor 1, Accession No.: NM_001401.4) (Q92633 whole entry): as above

SMILES: Cc1nc(-c2nnn(C)c2NC(=O)O[C@H](C)CC(C)(F)F)ccc1C#C[C@H]1CCC[C@@H]1C(=O)O (single isomer, unassigned) [246-B]
IC50 [1, 4]: 25.9 nM
AUC(0-t) ([2]; SD rats, Iv, 1 mg/kg): 5000 to 10000 ng·h/mL
half-life ([2]; SD rats, Iv, 1 mg/kg): 7.01 h
Cmax ([2]; SD rats, Iv, 1 mg/kg): 800 to 5000 ng/mL
AUC(0-t) ([2]; SD rats, Po, 1 mg/kg): 3000 to 5000 ng·h/mL
half-life ([2]; SD rats, Po, 1 mg/kg): 4.4 h
Cmax ([2]; SD rats, Po, 1 mg/kg): 200 to 800 ng/mL

SMILES: Cc1nc(-c2nnn(C)c2NC(=O)OC(C)CC2CC2)ccc1C#CC1CCC1C(=O)O (single isomer, unassigned) [248-A]
IC50 [1, 5]: 18.1 nM
AUC(0-t) ([2]; SD rats, Iv, 1 mg/kg): 3000 to 5000 ng·h/mL
half-life ([2]; SD rats, Iv, 1 mg/kg): 7.72 h
Cmax ([2]; SD rats, Iv, 1 mg/kg): 800 to 5000 ng/mL
AUC(0-t) ([2]; SD rats, Po, 1 mg/kg): 5000 to 10000 ng·h/mL
half-life ([2]; SD rats, Po, 1 mg/kg): 5.33 h
Cmax ([2]; SD rats, Po, 1 mg/kg): 200 to 800 ng/mL

SMILES: Cc1nc(-c2nnn(C)c2COC(=O)N(C)CCC(C)(F)F)ccc1C#C[C@@H]1CCC[C@H]1C(=O)O (single isomer, unassigned) [282-A]
IC50 [3]: 87.6 nM

SMILES: CCCC(C)OC(=O)Nc1c(-c2ccc(C#CC3CCCC3C(=O)O)c(C)n2)nnn1C (single isomer, unassigned) [305-A]
IC50 [3]: 25.6 nM

SMILES: Cc1nc(-c2nnn(C)c2NC(=O)O[C@H](C)c2ccccc2Cl)ccc1C#C[C@H]1CC[C@@H]1C(=O)O [compound 033]
IC50 [1, 4]: 3.3 nM
AUC(0-t) ([2]; SD rats, Iv, 1 mg/kg): 3000 to 5000 ng·h/mL
half-life ([2]; SD rats, Iv, 1 mg/kg): 5.93 h
Cmax ([2]; SD rats, Iv, 1 mg/kg): 800 to 5000 ng/mL
AUC(0-t) ([2]; SD rats, Po, 1 mg/kg): 3000 to 5000 ng·h/mL
half-life ([2]; SD rats, Po, 1 mg/kg): 5.31 h
Cmax ([2]; SD rats, Po, 1 mg/kg): 800 to 5000 ng/mL

Continued, values first:

IC50 [3]: 46.2 nM
SMILES: CCC[C@@H](C)OC(=O)Nc1c(-c2ccc(C#CC3(CC(=O)O)CC(OC)C3)c(C)n2)nnn1C (single isomer, unassigned) [278-A]

IC50 [3]: 56 nM
SMILES: CCC[C@@H](C)OC(=O)Nc1c(-c2ccc(C#CC3(CC(=O)O)CC(OC)C3)c(C)n2)nnn1C (single isomer, unassigned) [278-B]

IC50 [1, 5]: 34.4 nM
half-life ([2]; male, SD, iv, 1 mg/kg): 5.19 h
half-life ([2]; male, SD, po, 1 mg/kg): 4 h
AUC(0-t) ([2]; male, SD rats, Iv, 1 mg/kg): 5000 to 10000 ng·h/mL
Cmax ([2]; male, SD rats, Iv, 1 mg/kg): 5000 to 8000 ng/mL
AUC(0-t) ([2]; male, SD rats, Po, 1 mg/kg): 5000 to 10000 ng·h/mL
Cmax ([2]; male, SD rats, Po, 1 mg/kg): 800 to 5000 ng/mL
SMILES: CC(OC(=O)Nc1c(-c2ccc(C#CC3(CC(=O)O)CC3)c(F)n2)nnn1C)C12CC(C1)C2 (centres unmarked) [237-A, 2-(1-((6-(5-(((1-(bicyclo[1.1.1]pentan-1-yl)ethoxy)carbonyl)amino)-1-methyl-1H-1,2,3-triazol-4-yl)-2-fluoropyridin-3-yl)ethynyl)cyclopropyl)acetic acid]

IC50 [1, 5]: 83.4 nM
half-life ([2]; male, SD, iv, 1 mg/kg): 7.18 h
half-life ([2]; male, SD, po, 3 mg/kg): 3.4 h
AUC(0-t) ([2]; male, SD rats, Iv, 1 mg/kg): 1200 to 3000 ng·h/mL
Cmax ([2]; male, SD rats, Iv, 1 mg/kg): 5000 to 8000 ng/mL
AUC(0-t) ([2]; male, SD rats, Po, 3 mg/kg): 3000 to 5000 ng·h/mL
Cmax ([2]; male, SD rats, Po, 3 mg/kg): 800 to 5000 ng/mL
SMILES: C[C@H](C1CC1)N(C)C(=O)OCc1c(-c2ccc(C#CC3(CC(=O)O)CC3)cn2)nnn1C [compound 002, (R)-2-(1-((6-(5-((((1-cyclopropylethyl)(methyl)carbamoyl)oxy)methyl)-1-methyl-1H-1,2,3-triazol-4-yl)pyridin-3-yl)ethynyl)cyclopropyl)acetic acid]

IC50 [3]: 117 nM
SMILES: Cc1nc(-c2nnn(C)c2NC(=O)O[C@H](C)c2ccccc2Cl)ccc1C#C[C@@H]1C[C@H]1C(=O)O [compound 053]

IC50 [3]: 205 nM
SMILES: CCCN(C)C(=O)OCc1c(-c2ccc(C#CC3(CC(=O)O)CC3)c(C(F)(F)F)n2)nnn1C [compound 101]
